Test results from ChEMBL document CHEMBL1123274, “Azasteroids: structure-activity relationships for inhibition of 5 alpha-reductase and of androgen receptor binding” (J Med Chem, 1986).

Assays:
[1] = biological target: T1, Steroid 5-alpha-reductase (Rattus norvegicus, UniProt P24008+P31214); test: Apparent inhibitory constant value for rat prostatic steroid 5-alpha reductase was determined; format: protein assay
T1 sequence (P24008 whole entry): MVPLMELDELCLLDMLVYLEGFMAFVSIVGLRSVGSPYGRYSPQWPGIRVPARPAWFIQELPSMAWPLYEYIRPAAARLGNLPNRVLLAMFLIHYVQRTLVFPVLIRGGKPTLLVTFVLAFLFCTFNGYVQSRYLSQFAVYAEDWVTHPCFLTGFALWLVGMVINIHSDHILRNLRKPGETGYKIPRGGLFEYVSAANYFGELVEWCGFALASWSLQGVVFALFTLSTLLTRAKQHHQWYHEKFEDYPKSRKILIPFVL
T1 sequence (P31214 whole entry): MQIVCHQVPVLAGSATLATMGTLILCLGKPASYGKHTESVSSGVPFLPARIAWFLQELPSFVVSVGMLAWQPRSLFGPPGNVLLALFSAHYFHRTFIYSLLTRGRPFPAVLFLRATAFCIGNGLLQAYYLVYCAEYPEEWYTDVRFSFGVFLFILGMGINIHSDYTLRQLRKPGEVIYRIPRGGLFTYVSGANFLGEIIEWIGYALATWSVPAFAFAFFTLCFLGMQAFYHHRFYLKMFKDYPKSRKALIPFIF

[2] = biological target: T1, Steroid 5-alpha-reductase; test: In vitro inhibitory activity against rat prostatic steroid 5-alpha-reductase; format: protein assay
Androgen receptor = biological target: T2, Androgen receptor (Rattus norvegicus, UniProt P15207); test: In vitro antagonist activity against rat prostatic androgen receptor (AR)
T2 sequence (P15207 whole entry): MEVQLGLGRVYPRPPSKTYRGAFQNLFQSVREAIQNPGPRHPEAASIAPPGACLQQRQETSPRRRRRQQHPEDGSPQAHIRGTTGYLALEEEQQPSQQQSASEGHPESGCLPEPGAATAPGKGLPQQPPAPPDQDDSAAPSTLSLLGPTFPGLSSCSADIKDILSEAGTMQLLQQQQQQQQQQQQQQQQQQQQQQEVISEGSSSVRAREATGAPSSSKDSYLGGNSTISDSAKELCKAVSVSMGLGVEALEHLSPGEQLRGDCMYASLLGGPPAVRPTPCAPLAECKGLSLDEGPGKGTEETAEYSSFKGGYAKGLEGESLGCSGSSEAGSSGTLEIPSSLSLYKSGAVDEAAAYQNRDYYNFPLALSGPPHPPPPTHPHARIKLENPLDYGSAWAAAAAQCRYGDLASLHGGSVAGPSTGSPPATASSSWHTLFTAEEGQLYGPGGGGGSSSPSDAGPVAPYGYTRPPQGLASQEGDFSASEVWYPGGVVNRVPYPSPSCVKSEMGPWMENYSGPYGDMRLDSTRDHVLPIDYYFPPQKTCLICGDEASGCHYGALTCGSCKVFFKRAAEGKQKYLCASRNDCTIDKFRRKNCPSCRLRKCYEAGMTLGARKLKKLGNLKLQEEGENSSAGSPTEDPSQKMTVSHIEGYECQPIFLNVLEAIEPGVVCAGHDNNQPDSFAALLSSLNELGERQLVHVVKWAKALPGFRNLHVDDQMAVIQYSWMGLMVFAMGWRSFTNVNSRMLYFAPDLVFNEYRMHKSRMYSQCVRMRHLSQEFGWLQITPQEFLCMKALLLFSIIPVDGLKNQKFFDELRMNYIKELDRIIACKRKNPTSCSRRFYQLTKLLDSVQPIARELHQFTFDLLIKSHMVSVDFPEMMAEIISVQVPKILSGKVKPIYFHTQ

[3] = biological target: T1, Steroid 5-alpha-reductase; test: Apparent inhibitory constant value for rat prostatic steroid 5alpha reductase was determined; format: protein assay
[4] = biological target: T1, Steroid 5-alpha-reductase; test: Inhibition of Steroid 5-alpha-reductase from rat prostate; format: tissue-based, Prostate gland
[5] = biological target: T1, Steroid 5-alpha-reductase; test: Apparent inhibitory constant value for rat prostatic 5-alpha reductase was determined; format: protein assay

Compound	Ki app [1]	IC50 [2]	IC50 (Androgen receptor)	Ki app [3]	Ki app [5]	IC50 [4]
CC(O)[C@@]1(O)CC[C@H]2[C@@H]3CCC4N(C)C(=O)CC[C@]4(C)[C@H]3CC[C@@]21C (some centres undefined)	6 nM	7.6 nM	1900 nM			
C[C@]12CC[C@H]3[C@@H](CCC4=CC(=O)CC[C@@]43C)[C@@H]1CC[C@@H]2C(=O)O			8900 nM			660 nM
COC(=O)[C@H]1CC[C@H]2[C@@H]3CCC4=CC(=O)CC[C@]4(C)[C@H]3CC[C@]12C			140 nM			480 nM
C[C@]12CCC(=O)CC1CC[C@@H]1[C@@H]2CC[C@@]2(C)[C@H]1CC[C@@]21CCCO1 (some centres undefined)			23 nM			> 1000 nM
CN1C(=O)CC[C@@]2(C)C1CC[C@@H]1[C@@H]2CC[C@@]2(C)[C@H]1CC[C@@]21CCCO1 (some centres undefined)	24 nM	37 nM	140 nM			

Second part, led by results:

Ki app [1]	IC50 [2]	IC50 (Androgen receptor)	Ki app [3]	Ki app [5]	Compound	IC50 [4]
1.7 nM	1.7 nM	46000 nM			CC(C(=O)[O-])[C@H]1CC[C@H]2[C@@H]3CCC4N(C)C(=O)CC[C@]4(C)[C@H]3CC[C@]12C.[Na+] (some centres undefined)	
	11 nM	2800 nM	5 nM		CCN(CC)C(=O)[C@H]1CC[C@H]2[C@@H]3CC[C@H]4N(C)C(=O)CC[C@]4(C)[C@H]3CC[C@]12C	
		1300 nM			CCN(CC)C(=O)[C@H]1CC[C@H]2[C@@H]3CCC4=C(C#N)C(=O)CC[C@]4(C)[C@H]3CC[C@]12C	29 nM
	7.6 nM	120 nM		165 nM	COC(=O)[C@H]1CC[C@H]2[C@@H]3CCC4N(C)C(=O)CC[C@]4(C)[C@H]3CC[C@]12C (some centres undefined)	
13 nM	11 nM	> 100000 nM			CC(C)N(C(=O)[C@H]1CC[C@H]2[C@@H]3CCC4NC(=O)CC[C@]4(C)[C@H]3CC[C@]12C)C(C)C (some centres undefined)	
29 nM	41 nM	> 100000 nM			CCN(CC)C(=O)[C@H]1CC[C@H]2[C@@H]3CC[C@@H]4NC(=O)CC[C@]4(C)[C@H]3CC[C@]12C (stereo in doubt; 9x)	
